According to patent US8389563B2, “C-substituted diindolylmethane compositions and methods for the treatment of multiple cancers” (The Texas A&M University System, priority 2000, dated 2013):

Legend:
[1] = target: T1, PPARγ (Homo sapiens, UniProt P37231); experiment: pGAL4-PPARγ / pGAL45 luciferase reporter assay in MCF-7 breast cancer cells; assay type: cell-based; settings: 5 μM
T1 construct: expressed in transfected cells; host or cells: MCF-7 breast cancer cells
T1 sequence (P37231 238-503 limits assumed): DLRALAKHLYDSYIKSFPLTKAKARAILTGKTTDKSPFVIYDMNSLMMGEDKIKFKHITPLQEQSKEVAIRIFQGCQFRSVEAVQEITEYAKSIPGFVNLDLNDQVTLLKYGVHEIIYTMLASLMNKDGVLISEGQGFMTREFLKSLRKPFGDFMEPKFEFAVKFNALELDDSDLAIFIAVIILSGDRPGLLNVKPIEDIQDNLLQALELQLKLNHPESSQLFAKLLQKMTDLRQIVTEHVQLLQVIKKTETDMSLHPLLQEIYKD
Excerpt: Peroxisome proliferator-activated receptor (PPAR) is a nuclear receptor that induces differentiation in multiple tissues and cell lines. Synthetic compounds that bind PPAR (inhibit growth, induce differentiation in multiple tumor cell lines, and inhibit mammary carcinogenesis in rodent models (Mueller et al., “Terminal differentiation of human breast cancer through PPAR” Mol. Cell. 1:465 470, 1998; Elstner et al., “Ligands for peroxisome proliferator-activated receptor gamma and retinoic acid receptor inhibit growth and induce apoptosis of human breast cancer cells in vitro and in BNX mice” Proc. Natl. Acad. Sci. USA 95:8806 8811, 1998; Brockman et al., “Activation of PPARγ leads to inhibition of anchorage independent growth of human colorectal cancer cells” Gastroenterology 115:2049 1055, 1998; Tontonoz et al., “Terminal differentiation of human lipsarcoma cells induced by ligands for peroxisome proliferator-activated receptor and the retinoid X receptor” Proc. Natl. Acad. Sci. USA 94:237 241, 1997; Suh et al., “A new ligand for the peroxisome proliferator-activated receptor-PPAR, GW7845, inhibits rat mammary carcinogenesis” Cancer Res. 59:56715673, 1999). […] Ligand activation of pGAL4-PPARγ is detected using a construct containing five tandem GAL4 response elements (pGAL45) linked to a luciferase reporter gene.

[2] = system: CYP1A1-dependent ethoxyresorufin O-deethylase (EROD) activity; experiment: Induction of EROD activity in LnCAP prostate cancer cells; assay type: cell-based, human
Excerpt: (§1) Results illustrated below summarize the concentration-dependent induction of CYP1A1-dependent ethoxyresorufin O-deethylase (EROD) activity by DIM and TCDD in androgen-nonresponsive PC3 human prostate cancer cells (FIG. 12). […] We also investigated the induction of EROD activity in two additional androgen-responsive prostate cancer cell lines.

[3] = system: 22Rv1 human prostate cancer cells; experiment: Proliferation of 22Rv1 prostate cancer cells; assay type: cell-based; settings: 1 nM TCDD
[4] = system: CYP1A1-dependent ethoxyresorufin O-deethylase (EROD) activity; experiment: Induction of EROD activity in PC3 prostate cancer cells
Excerpt: as §1

[5] = system: CYP1A1-dependent ethoxyresorufin O-deethylase (EROD) activity; experiment: Induction of EROD activity in 22Rv1 prostate cancer cells; settings: treatment for 24 hrs; TCDD 0.1 to 10 nM
Excerpt: as §1

| Increase in reporter gene (luciferase) activity, pGAL4-PPARγ [1] [fold] | Compound | Induction of EROD activity in LnCAP cells [2] | Proliferation of 22Rv1 human prostate cancer cells [3] | Treatment time of maximal EROD induction in PC3 cells ([4]; 10 nM TCDD) [h] | Induction of EROD activity in PC3 cells ([4]; 10 μM DIM, 10 nM TCDD) | Induction of EROD activity in PC3 cells after 24 hours ([4]; 24 hours) | Induction of EROD activity in 22Rv1 cells [5] |
| --- | --- | --- | --- | --- | --- | --- | --- |
| 2 | CCCCC/C=C/C=C1/C(=O)C=C[C@@H]1C/C=C\CCCC(=O)O [PGJ, 15-deoxy-γ^12,14-prostaglandin J2] | – | – | – | – | – | – |
| – | Clc1cc2c(cc1Cl)Oc1cc(Cl)c(Cl)cc1O2 [TCDD, 2,3,7,8-tetrachlorodibenzo-p-dioxin] | significant induction of EROD activity | inhibited proliferation | 96 | induced EROD activity | minimal (but significant) induction | induced EROD activity |
